Columns and labels:
Type in all cases: functional
K562 [1] = experiment: Cytotoxicity against human K562 cells assessed as growth inhibition after 48 hrs by sulforhodamine B assay; conditions: K562, 48 h
COLO 205 = experiment: Cytotoxicity against human COLO205 cells assessed as growth inhibition after 48 hrs by sulforhodamine B assay; conditions: COLO 205, 48 h
MDA-MB-435 [2] = experiment: Cytotoxicity against human MDA-MB-435 cells assessed as growth inhibition after 48 hrs by sulforhodamine B assay; conditions: MDA-MB-435, 48 h
SN12C = experiment: Cytotoxicity against human SN12C cells assessed as growth inhibition after 48 hrs by sulforhodamine B assay
T47D = experiment: Cytotoxicity against human T47D cells assessed as growth inhibition after 48 hrs by sulforhodamine B assay
786-0 = experiment: Cytotoxicity against human 786-0 cells assessed as cell growth at 0.01 uM after 48 hrs by sulforhodamine B assay relative to control; conditions: 786-0, 48 h, read-out: Activity
SK-OV-3 = experiment: Cytotoxicity against human SKOV3 cells assessed as cell growth at 0.01 uM after 48 hrs by sulforhodamine B assay relative to control; conditions: SK-OV-3, 48 h, read-out: Activity
OVCAR-3 = experiment: Cytotoxicity against human OVCAR3 cells assessed as cell growth at 0.01 uM after 48 hrs by sulforhodamine B assay relative to control; conditions: OVCAR-3, 48 h, read-out: Activity
IGROV-1 = experiment: Cytotoxicity against human IGROV1 cells assessed as cell growth at 0.01 uM after 48 hrs by sulforhodamine B assay relative to control; conditions: IGROV-1, 48 h, read-out: Activity
UACC-257 = experiment: Cytotoxicity against human UACC257 cells assessed as cell growth at 0.01 uM after 48 hrs by sulforhodamine B assay relative to control; conditions: UACC-257, 48 h, read-out: Activity
MDA-MB-435 [3] = experiment: Cytotoxicity against human MDA-MB-435 cells assessed as cell growth at 0.01 uM after 48 hrs by sulforhodamine B assay relative to control; conditions: MDA-MB-435, 48 h, read-out: Activity
NCI-H23 [4] = experiment: Cytotoxicity against human NCI-H23 cells assessed as cell growth at 0.01 uM after 48 hrs by sulforhodamine B assay relative to control; conditions: NCI-H23, 48 h, read-out: Activity
SR = experiment: Cytotoxicity against human SR cells assessed as cell growth at 0.01 uM after 48 hrs by sulforhodamine B assay relative to control; conditions: read-out: Activity
NCI-H460 [5] = experiment: Cytotoxicity against human NCI-H460 cells assessed as cell growth at 0.1 uM after 48 hrs by sulforhodamine B assay relative to control; conditions: NCI-H460, 48 h, read-out: Activity
KM12 = experiment: Cytotoxicity against human KM12 cells assessed as cell growth at 0.1 uM after 48 hrs by sulforhodamine B assay relative to control; conditions: KM12, 48 h, read-out: Activity
Malme-3M [6] = experiment: Cytotoxicity against human MALME-3M cells assessed as cell growth at 0.1 uM after 48 hrs by sulforhodamine B assay relative to control; conditions: read-out: Activity
TK-10 = experiment: Cytotoxicity against human TK10 cells assessed as cell growth at 0.1 uM after 48 hrs by sulforhodamine B assay relative to control; conditions: TK-10, 48 h, read-out: Activity
BT-549 [7] = experiment: Cytotoxicity against human BT549 cells assessed as cell growth at 0.1 uM after 48 hrs by sulforhodamine B assay relative to control; conditions: BT-549, 48 h, read-out: Activity
MDA-MB-468 = experiment: Cytotoxicity against human MDA-MB-468 cells assessed as cell growth at 0.1 uM after 48 hrs by sulforhodamine B assay relative to control; conditions: MDA-MB-468, 48 h, read-out: Activity
NCI-H23 [8] = experiment: Cytotoxicity against human NCI-H23 cells assessed as cell growth at 1 uM after 48 hrs by sulforhodamine B assay relative to control; conditions: NCI-H23, 48 h, read-out: Activity
NCI-H322M = experiment: Cytotoxicity against human NCI-H322M cells assessed as cell growth at 1 uM after 48 hrs by sulforhodamine B assay relative to control; conditions: read-out: Activity
NCI-H460 [9] = experiment: Cytotoxicity against human NCI-H460 cells assessed as cell growth at 1 uM after 48 hrs by sulforhodamine B assay relative to control; conditions: NCI-H460, 48 h, read-out: Activity
SF-539 = experiment: Cytotoxicity against human SF539 cells assessed as cell growth at 1 uM after 48 hrs by sulforhodamine B assay relative to control; conditions: SF-539, 48 h, read-out: Activity
Malme-3M [10] = experiment: Cytotoxicity against human MALME-3M cells assessed as cell growth at 1 uM after 48 hrs by sulforhodamine B assay relative to control; conditions: read-out: Activity
OVCAR-4 [11] = experiment: Cytotoxicity against human OVCAR4 cells assessed as cell growth at 1 uM after 48 hrs by sulforhodamine B assay relative to control; conditions: OVCAR-4, 48 h, read-out: Activity
K562 [12] = experiment: Cytotoxicity against human K562 cells assessed as cell growth at 10 uM after 48 hrs by sulforhodamine B assay relative to control; conditions: K562, 48 h, read-out: Activity
HOP-62 [13] = experiment: Cytotoxicity against human HOP62 cells assessed as cell growth at 10 uM after 48 hrs by sulforhodamine B assay relative to control; conditions: HOP-62, 48 h, read-out: Activity
OVCAR-4 [14] = experiment: Cytotoxicity against human OVCAR4 cells assessed as cell growth at 10 uM after 48 hrs by sulforhodamine B assay relative to control; conditions: OVCAR-4, 48 h, read-out: Activity
OVCAR-8 = experiment: Cytotoxicity against human OVCAR8 cells assessed as cell growth at 10 uM after 48 hrs by sulforhodamine B assay relative to control; conditions: OVCAR-8, 48 h, read-out: Activity
BT-549 [15] = experiment: Cytotoxicity against human BT549 cells assessed as cell growth at 10 uM after 48 hrs by sulforhodamine B assay relative to control; conditions: BT-549, 48 h, read-out: Activity
K562 [16] = experiment: Cytotoxicity against human K562 cells assessed as cell growth at 100 uM after 48 hrs by sulforhodamine B assay relative to control; conditions: K562, 48 h, read-out: Activity
HOP-62 [17] = experiment: Cytotoxicity against human HOP62 cells assessed as cell growth at 100 uM after 48 hrs by sulforhodamine B assay relative to control; conditions: HOP-62, 48 h, read-out: Activity
NCI-H226 = experiment: Cytotoxicity against human NCI-H226 cells assessed as cell growth at 100 uM after 48 hrs by sulforhodamine B assay relative to control; conditions: NCI-H226, 48 h, read-out: Activity
SW-620 = experiment: Cytotoxicity against human SW620 cells assessed as cell growth at 100 uM after 48 hrs by sulforhodamine B assay relative to control; conditions: SW-620, 48 h, read-out: Activity
OVCAR-5 = experiment: Cytotoxicity against human OVCAR5 cells assessed as cell growth at 100 uM after 48 hrs by sulforhodamine B assay relative to control; conditions: OVCAR-5, 48 h, read-out: Activity
MCF7 = experiment: Cytotoxicity against human MCF7 cells assessed as cell growth at 100 uM after 48 hrs by sulforhodamine B assay relative to control; conditions: MCF7, 48 h, read-out: Activity

## COc1ccc(-c2cc(/C=C/C(=O)c3cc(OC)c(OC)c(OC)c3)[nH]n2)cc1OC
K562 [1]
  GI50: 0.73 µM
  LC50 (concentration killing 50% of cells): > 100 µM
  TGI: 9.71 µM
COLO 205
  GI50: 1.75 µM
  LC50: 7.28 µM
  TGI: 3.57 µM
MDA-MB-435 [2]
  GI50: 1.78 µM
  LC50: 9.2 µM
  TGI: 4.05 µM
SN12C
  GI50: 1.77 µM
  LC50: 8.26 µM
  TGI: 3.83 µM
T47D
  GI50: 1.01 µM
  LC50: > 100 µM
  TGI: 3.76 µM
786-0
  growth at 0.01 µM: 100%
SK-OV-3
  growth at 0.01 µM: 97%
OVCAR-3
  growth at 0.01 µM: 99%
IGROV-1
  growth at 0.01 µM: 103%
UACC-257
  growth at 0.01 µM: 96%
MDA-MB-435 [3]
  growth at 0.01 µM: 98%
NCI-H23 [4]
  growth at 0.01 µM: 94%
SR
  growth at 0.01 µM: 93%
NCI-H460 [5]
  growth at 0.1 µM: 100%
KM12
  growth at 0.1 µM: 92%
Malme-3M [6]
  growth at 0.1 µM: 89%
TK-10
  growth at 0.1 µM: 89%
BT-549 [7]
  growth at 0.1 µM: 82%
MDA-MB-468
  growth at 0.1 µM: 91%
NCI-H23 [8]
  growth at 1 µM: 87%
NCI-H322M
  growth at 1 µM: 82%
NCI-H460 [9]
  growth at 1 µM: 52%
SF-539
  growth at 1 µM: 17%
Malme-3M [10]
  growth at 1 µM: 93%
OVCAR-4 [11]
  growth at 1 µM: 66%
K562 [12]
  growth at 10 µM: -1%
HOP-62 [13]
  growth at 10 µM: -57%
OVCAR-4 [14]
  growth at 10 µM: -11%
OVCAR-8
  growth at 10 µM: 6%
BT-549 [15]
  growth at 10 µM: -80%
K562 [16]
  growth at 100 µM: -16%
HOP-62 [17]
  growth at 100 µM: -84%
NCI-H226
  growth at 100 µM: -43%
SW-620
  growth at 100 µM: -43%
OVCAR-5
  growth at 100 µM: -70%
MCF7
  growth at 100 µM: -43%

## COc1ccc(-c2cc(/C=C/C(=O)c3ccc(OC)c(OC)c3)[nH]n2)cc1
K562 [1]
  GI50: 1.28 µM
  LC50 (concentration killing 50% of cells): > 100 µM
  TGI: 10.7 µM
COLO 205
  GI50: 1.76 µM
  LC50: 6.16 µM
  TGI: 3.3 µM
MDA-MB-435 [2]
  GI50: 1.84 µM
  LC50: 8.17 µM
  TGI: 3.88 µM
SN12C
  GI50: 1.64 µM
  LC50: 8.73 µM
  TGI: 3.78 µM
T47D
  GI50: 1.6 µM
  LC50: 24.9 µM
  TGI: 5.15 µM
786-0
  growth at 0.01 µM: 100%
SK-OV-3
  growth at 0.01 µM: 109%
OVCAR-3
  growth at 0.01 µM: 106%
IGROV-1
  growth at 0.01 µM: 97%
UACC-257
  growth at 0.01 µM: 92%
MDA-MB-435 [3]
  growth at 0.01 µM: 97%
NCI-H23 [4]
  growth at 0.01 µM: 100%
SR
  growth at 0.01 µM: 100%
NCI-H460 [5]
  growth at 0.1 µM: 101%
KM12
  growth at 0.1 µM: 103%
Malme-3M [6]
  growth at 0.1 µM: 89%
TK-10
  growth at 0.1 µM: 102%
BT-549 [7]
  growth at 0.1 µM: 105%
MDA-MB-468
  growth at 0.1 µM: 90%
NCI-H23 [8]
  growth at 1 µM: 98%
NCI-H322M
  growth at 1 µM: 72%
NCI-H460 [9]
  growth at 1 µM: 75%
SF-539
  growth at 1 µM: 66%
Malme-3M [10]
  growth at 1 µM: 82%
OVCAR-4 [11]
  growth at 1 µM: 39%
K562 [12]
  growth at 10 µM: 1%
HOP-62 [13]
  growth at 10 µM: -25%
OVCAR-4 [14]
  growth at 10 µM: -27%
OVCAR-8
  growth at 10 µM: 1%
BT-549 [15]
  growth at 10 µM: -70%
K562 [16]
  growth at 100 µM: -26%
HOP-62 [17]
  growth at 100 µM: -71%
NCI-H226
  growth at 100 µM: -43%
SW-620
  growth at 100 µM: -55%
OVCAR-5
  growth at 100 µM: -87%
MCF7
  growth at 100 µM: -100%

Reference: ChEMBL document CHEMBL4138123, “Design, synthesis and biological evaluation of novel pyrazolochalcones as potential modulators of PI3K/Akt/mTOR pathway and inducers of apoptosis in breast cancer cells” (Eur J Med Chem, 2017)
